The text below walks through data of patent US20060252807A1, “Novel ortho-terphenyl inhibitors of p38 kinase and methods of treating inflammatory disorders” (Kalypsys, Inc., priority 2005, published 2006).

Broadly, the IC50 is the midpoint of a concentration-inhibition curve. High values mean lower potency, low ones higher potency.

This assay concerns the target T1, active p38 alpha enzyme (Upstate Biotechnology) (Homo sapiens, UniProt Q16539).
T1 construct: purchased Upstate Biotechnology
Nature of the assay: p38α biochemical assay (ATP turnover, luminescent detection, Cambrex PKlight). The conditions noted are these: p38α kinase; Table 1 Biological Activity. Put shortly: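 In this kinase reaction, p38α used MapkapK2 as phosphorylation substrate at low ATP (1.4 uM final) over 2 hours at 30C, and activity was followed as ATP turnover by luminescence.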

T1 sequence (Q16539 whole entry): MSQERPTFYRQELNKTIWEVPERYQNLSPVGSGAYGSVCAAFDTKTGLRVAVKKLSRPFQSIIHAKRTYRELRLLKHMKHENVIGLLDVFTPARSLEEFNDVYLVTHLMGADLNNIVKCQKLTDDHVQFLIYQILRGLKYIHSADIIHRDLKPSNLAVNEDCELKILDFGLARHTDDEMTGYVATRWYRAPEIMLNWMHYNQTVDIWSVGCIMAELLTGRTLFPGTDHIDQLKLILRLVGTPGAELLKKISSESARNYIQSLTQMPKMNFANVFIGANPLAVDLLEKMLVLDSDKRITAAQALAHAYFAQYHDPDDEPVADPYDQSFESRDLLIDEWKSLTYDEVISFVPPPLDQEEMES

Consider `Cc1ccccc1OCC(=O)N1CCC(c2[nH]nc(-c3ccc(F)cc3)c2-c2nc(C(=O)NC(C)C)cs2)CC1` [Example 894], for which the IC50 is over 1000 nM.

Turning to `CC(C)NC(=O)c1csc(-c2c(-c3ccc(F)cc3)n[nH]c2C2CCN(C(=O)CCc3ccccc3O)CC2)n1` [Example 895], the IC50 was over 1000 nM.

Turning to `COc1ccccc1CC(=O)N1CCC(c2[nH]nc(-c3ccc(F)cc3)c2-c2nc(C(=O)NC(C)C)cs2)CC1` [Example 896], the IC50 was over 1000 nM.

`CC(C)NC(=O)c1csc(-c2c(-c3ccc(F)cc3)n[nH]c2C2CCN(C(=O)C(C)c3ccc(O)cc3)CC2)n1` (stereo not drawn) [Example 897] returned an IC50 of over 1000 nM.

`CC(C)NC(=O)c1csc(-c2c(-c3ccc(F)cc3)n[nH]c2C2CCN(C(=O)c3ccccc3[N+](=O)[O-])CC2)n1` [Example 898] gave an IC50 of over 1000 nM.

Turning to `CC(C)NC(=O)c1csc(-c2c(-c3ccc(F)cc3)n[nH]c2C2CCN(C(=O)c3cccc([N+](=O)[O-])c3)CC2)n1` [Example 899], the IC50 was over 1000 nM.

Compound `COc1cccc(O)c1C(=O)N1CCC(c2[nH]nc(-c3ccc(F)cc3)c2-c2nc(C(=O)NC(C)C)cs2)CC1` [Example 900] displayed an IC50 of over 1000 nM.

With `COc1ccc(O)c(C(=O)N2CCC(c3[nH]nc(-c4ccc(F)cc4)c3-c3nc(C(=O)NC(C)C)cs3)CC2)c1` [Example 901], the IC50 was over 1000 nM.

`COc1ccc(C(=O)N2CCC(c3[nH]nc(-c4ccc(F)cc4)c3-c3nc(C(=O)NC(C)C)cs3)CC2)c(O)c1` [Example 902] showed an IC50 of over 1000 nM.

In the case of `COc1ccc(C(=O)N2CCC(c3[nH]nc(-c4ccc(F)cc4)c3-c3nc(C(=O)NC(C)C)cs3)CC2)cc1O` [Example 903], the IC50 was over 1000 nM.

As to `CC(C)NC(=O)c1csc(-c2c(-c3ccc(F)cc3)n[nH]c2C2CCN(C(=O)c3cc(O)c(O)c(O)c3)CC2)n1` [Example 904], the IC50 was at most 1000 nM.

`CC(C)NC(=O)c1csc(-c2c(-c3ccc(F)cc3)n[nH]c2C2CCN(C(=O)Cc3ccc(O)c(F)c3)CC2)n1` [Example 905] came in with an IC50 of over 1000 nM.

`Cc1cc(C(=O)N2CCC(c3[nH]nc(-c4ccc(F)cc4)c3-c3nc(C(=O)NC(C)C)cs3)CC2)cc(Cl)n1` [Example 906] showed an IC50 of over 1000 nM.

Regarding `CC(C)NC(=O)c1csc(-c2c(-c3ccc(F)cc3)n[nH]c2C2CCN(C(=O)Cc3c(F)cccc3F)CC2)n1` [Example 907], the IC50 was over 1000 nM.

`CC(C)NC(=O)c1csc(-c2c(-c3ccc(F)cc3)n[nH]c2C2CCN(C(=O)c3cccc4ccccc34)CC2)n1` [Example 908] yielded an IC50 of at most 1000 nM.

In turn, `CC(C)NC(=O)c1csc(-c2c(-c3ccc(F)cc3)n[nH]c2C2CCN(C(=O)c3ccc(Cl)cc3O)CC2)n1` [Example 909] displayed an IC50 of over 1000 nM.

On to `CC(C)NC(=O)c1csc(-c2c(-c3ccc(F)cc3)n[nH]c2C2CCN(C(=O)c3cc(Cl)ccc3O)CC2)n1` [Example 910], for which the IC50 is over 1000 nM.

Regarding `CC(C)NC(=O)c1csc(-c2c(-c3ccc(F)cc3)n[nH]c2C2CCN(C(=O)c3ccc4ncccc4c3)CC2)n1` [Example 911], the IC50 was over 1000 nM.

`CC(C)NC(=O)c1csc(-c2c(-c3ccc(F)cc3)n[nH]c2C2CCN(C(=O)c3cnc(O)c(Cl)c3)CC2)n1` [Example 912] had an IC50 of over 1000 nM.

Consider `CC(C)NC(=O)c1csc(-c2c(-c3ccc(F)cc3)n[nH]c2C2CCN(C(=O)c3ccc(F)cc3Cl)CC2)n1` [Example 913], for which the IC50 is over 1000 nM.

Regarding `CC(C)NC(=O)c1csc(-c2c(-c3ccc(F)cc3)n[nH]c2C2CCN(C(=O)c3c(F)cccc3Cl)CC2)n1` [Example 914], the IC50 was over 1000 nM.

`CC(C)NC(=O)c1csc(-c2c(-c3ccc(F)cc3)n[nH]c2C2CCN(C(=O)CNC(=O)OC(C)(C)C)CC2)n1` [Example 915]: the IC50 was over 1000 nM.

Turning to `Cc1c(C(=O)N2CCC(c3[nH]nc(-c4ccc(F)cc4)c3-c3nc(C(=O)NC(C)C)cs3)CC2)oc2ccccc12` [Example 916], the IC50 was at most 1000 nM.

Turning to `CC(C)NC(=O)c1csc(-c2c(-c3ccc(F)cc3)n[nH]c2C2CCN(C(=O)CC3Cc4ccccc4C3)CC2)n1` [Example 917], the IC50 is over 1000 nM.

In turn, `CC(C)NC(=O)c1csc(-c2c(-c3ccc(F)cc3)n[nH]c2C2CCN(C(=O)C3CCc4ccccc4C3)CC2)n1` (stereo not drawn) [Example 918] registered an IC50 of over 1000 nM.

Compound `COc1ccccc1/C=C/C(=O)N1CCC(c2[nH]nc(-c3ccc(F)cc3)c2-c2nc(C(=O)NC(C)C)cs2)CC1` [Example 919] displayed an IC50 of over 1000 nM.

Compound `CC(C)NC(=O)c1csc(-c2c(-c3ccc(F)cc3)n[nH]c2C2CCN(C(=O)c3csc4ccccc34)CC2)n1` [Example 920] returned a 50% inhibitory concentration (IC50) of over 1000 nM.

The compound `CC(C)NC(=O)c1csc(-c2c(-c3ccc(F)cc3)n[nH]c2C2CCN(C(=O)c3cc4ccccc4s3)CC2)n1` [Example 921] had an IC50 of over 1000 nM.

In turn, `CCCCc1ccc(C(=O)N2CCC(c3[nH]nc(-c4ccc(F)cc4)c3-c3nc(C(=O)NC(C)C)cs3)CC2)cc1` [Example 922] returned an IC50 of over 1000 nM.

Regarding `CC(C)NC(=O)c1csc(-c2c(-c3ccc(F)cc3)n[nH]c2C2CCN(C(=O)c3ccc(C(C)(C)C)cc3)CC2)n1` [Example 923], the IC50 was at most 1000 nM.

`CC(C)NC(=O)c1csc(-c2c(-c3ccc(F)cc3)n[nH]c2C2CCN(C(=O)c3ccc(N(C)C=O)cc3)CC2)n1` [Example 924] had an IC50 of over 1000 nM.

For the compound `CC(=O)Nc1cccc(C(=O)N2CCC(c3[nH]nc(-c4ccc(F)cc4)c3-c3nc(C(=O)NC(C)C)cs3)CC2)c1` [Example 925], the IC50 was at most 1000 nM.

For `CC(C)NC(=O)c1csc(-c2c(-c3ccc(F)cc3)n[nH]c2C2CCN(C(=O)COc3ccccc3C=O)CC2)n1` [Example 926], the IC50 was over 1000 nM.

`CC(=O)Oc1ccc(C(=O)N2CCC(c3[nH]nc(-c4ccc(F)cc4)c3-c3nc(C(=O)NC(C)C)cs3)CC2)cc1` [Example 927] displayed an IC50 of over 1000 nM.

For `COC(=O)c1ccc(C(=O)N2CCC(c3[nH]nc(-c4ccc(F)cc4)c3-c3nc(C(=O)NC(C)C)cs3)CC2)cc1` [Example 928], the IC50 is over 1000 nM.

As to `CC(=O)Oc1cccc(C(=O)N2CCC(c3[nH]nc(-c4ccc(F)cc4)c3-c3nc(C(=O)NC(C)C)cs3)CC2)c1` [Example 929], the IC50 was over 1000 nM.

The compound `CC(=O)Oc1ccccc1C(=O)N1CCC(c2[nH]nc(-c3ccc(F)cc3)c2-c2nc(C(=O)NC(C)C)cs2)CC1` [Example 930] came in with an IC50 of over 1000 nM.

In turn, `CC(C)NC(=O)c1csc(-c2c(-c3ccc(F)cc3)n[nH]c2C2CCN(C(=O)Cc3ccc4c(c3)OCO4)CC2)n1` [Example 931] displayed an IC50 of over 1000 nM.

In the case of `CCCOc1ccc(C(=O)N2CCC(c3[nH]nc(-c4ccc(F)cc4)c3-c3nc(C(=O)NC(C)C)cs3)CC2)cc1` [Example 932], the IC50 is over 1000 nM.

`CC(C)NC(=O)c1csc(-c2c(-c3ccc(F)cc3)n[nH]c2C2CCN(C(=O)c3ccc(OC(C)C)cc3)CC2)n1` [Example 933] yielded an IC50 of over 1000 nM.

Regarding `Cc1cccc(C(=O)N2CCC(c3[nH]nc(-c4ccc(F)cc4)c3-c3nc(C(=O)NC(C)C)cs3)CC2)c1[N+](=O)[O-]` [Example 935], the IC50 was over 1000 nM.

`Cc1ccc([N+](=O)[O-])c(C(=O)N2CCC(c3[nH]nc(-c4ccc(F)cc4)c3-c3nc(C(=O)NC(C)C)cs3)CC2)c1` [Example 936] showed an IC50 of over 1000 nM.

The compound `COc1ccc(OC)c(C(=O)N2CCC(c3[nH]nc(-c4ccc(F)cc4)c3-c3nc(C(=O)NC(C)C)cs3)CC2)c1` [Example 938] had an IC50 of over 1000 nM.

`COc1ccc(C(=O)N2CCC(c3[nH]nc(-c4ccc(F)cc4)c3-c3nc(C(=O)NC(C)C)cs3)CC2)c(OC)c1` [Example 939]: the IC50 is over 1000 nM.

In turn, `COc1cccc(OC)c1C(=O)N1CCC(c2[nH]nc(-c3ccc(F)cc3)c2-c2nc(C(=O)NC(C)C)cs2)CC1` [Example 940] displayed an IC50 of over 1000 nM.

The compound `COc1cc(OC)cc(C(=O)N2CCC(c3[nH]nc(-c4ccc(F)cc4)c3-c3nc(C(=O)NC(C)C)cs3)CC2)c1` [Example 941] gave an IC50 of over 1000 nM.

As to `COc1cccc(C(=O)N2CCC(c3[nH]nc(-c4ccc(F)cc4)c3-c3nc(C(=O)NC(C)C)cs3)CC2)c1OC` [Example 942], the IC50 was over 1000 nM.

The compound `Cc1ccc(SCC(=O)N2CCC(c3[nH]nc(-c4ccc(F)cc4)c3-c3nc(C(=O)NC(C)C)cs3)CC2)cc1` [Example 943] displayed an IC50 of over 1000 nM.

`CC(C)NC(=O)c1csc(-c2c(-c3ccc(F)cc3)n[nH]c2C2CCN(C(=O)/C=C/c3ccc(Cl)cc3)CC2)n1` [Example 944] gave an IC50 of over 1000 nM.

For the compound `CC(C)NC(=O)c1csc(-c2c(-c3ccc(F)cc3)n[nH]c2C2CCN(C(=O)/C=C/c3ccccc3Cl)CC2)n1` [Example 945], the half-inhibitory concentration (IC50) was over 1000 nM.

In turn, `CC(C)NC(=O)c1csc(-c2c(-c3ccc(F)cc3)n[nH]c2C2CCN(C(=O)c3ccc([N+](=O)[O-])c(O)c3)CC2)n1` [Example 946] came in with a half-inhibitory concentration (IC50) of over 1000 nM.

Compound `CC(C)NC(=O)c1csc(-c2c(-c3ccc(F)cc3)n[nH]c2C2CCN(C(=O)c3cc(O)ccc3[N+](=O)[O-])CC2)n1` [Example 947] came in with an IC50 of at most 1000 nM.

Take `CC(C)NC(=O)c1csc(-c2c(-c3ccc(F)cc3)n[nH]c2C2CCN(C(=O)c3cc([N+](=O)[O-])ccc3O)CC2)n1` [Example 948]: the IC50 was over 1000 nM.

In turn, `CC(C)NC(=O)c1csc(-c2c(-c3ccc(F)cc3)n[nH]c2C2CCN(C(=O)c3cc([N+](=O)[O-])ccc3F)CC2)n1` [Example 949] returned an IC50 of over 1000 nM.

For the compound `CC(C)NC(=O)c1csc(-c2c(-c3ccc(F)cc3)n[nH]c2C2CCN(C(=O)c3cc(F)ccc3[N+](=O)[O-])CC2)n1` [Example 950], the IC50 is over 1000 nM.

Take `CC(C)NC(=O)c1csc(-c2c(-c3ccc(F)cc3)n[nH]c2C2CCN(C(=O)c3ccc(F)c([N+](=O)[O-])c3)CC2)n1` [Example 951]: the IC50 was over 1000 nM.

Regarding `COc1ccc(Cl)cc1C(=O)N1CCC(c2[nH]nc(-c3ccc(F)cc3)c2-c2nc(C(=O)NC(C)C)cs2)CC1` [Example 952], the IC50 is over 1000 nM.
